Laboratory results taken from patent US12324802B2, “Modulators of cystic fibrosis transmembrane conductance regulator” (Vertex Pharmaceuticals Incorporated, priority 2020, dated 2025).

Biological target: T1, CFTR (F508del/MF-HBE cells) (Homo sapiens, UniProt P13569, DEL508-508)
T1 construct: human bronchial epithelial (HBE) cells derived from CF subjects heterozygous for F508del and a minimal function CFTR mutation; endogenous in cells; host or cells: primary human bronchial epithelial cells from CF subjects (F508del/MF genotype)
Test: Ussing chamber assay of CFTR-mediated short-circuit currents (identification of potentiator compounds)
Assay type: cell-based
Details: CFTR-mediated ISC in F508del/MF-HBE cells; incubated 18-24 hours at 37° C. with 10 μM (14S)-8-[3-(2-{dispiro[2.0.2.1]heptan-7-yl}ethoxy)-1H-pyrazol-1-yl]-...-2,2,4-trione, 20% human serum
How it was run: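 Short-circuit current was voltage-clamped at 0 mV and 37 °C in pH 7.4 HEPES buffers, with amiloride (30 μM) on the apical side. The CFTR component was defined as forskolin (20 μM) peak minus residual current after BPO/GlyH-101/CFTRinh-172 at 20 μM each. Cells had been pretreated 18–24 h with potentiator concentrations and 10 μM corrector in 20% human serum, kept throughout the measurement.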

T1 sequence (P13569 with tags, fused parts or gaps DEL508-508): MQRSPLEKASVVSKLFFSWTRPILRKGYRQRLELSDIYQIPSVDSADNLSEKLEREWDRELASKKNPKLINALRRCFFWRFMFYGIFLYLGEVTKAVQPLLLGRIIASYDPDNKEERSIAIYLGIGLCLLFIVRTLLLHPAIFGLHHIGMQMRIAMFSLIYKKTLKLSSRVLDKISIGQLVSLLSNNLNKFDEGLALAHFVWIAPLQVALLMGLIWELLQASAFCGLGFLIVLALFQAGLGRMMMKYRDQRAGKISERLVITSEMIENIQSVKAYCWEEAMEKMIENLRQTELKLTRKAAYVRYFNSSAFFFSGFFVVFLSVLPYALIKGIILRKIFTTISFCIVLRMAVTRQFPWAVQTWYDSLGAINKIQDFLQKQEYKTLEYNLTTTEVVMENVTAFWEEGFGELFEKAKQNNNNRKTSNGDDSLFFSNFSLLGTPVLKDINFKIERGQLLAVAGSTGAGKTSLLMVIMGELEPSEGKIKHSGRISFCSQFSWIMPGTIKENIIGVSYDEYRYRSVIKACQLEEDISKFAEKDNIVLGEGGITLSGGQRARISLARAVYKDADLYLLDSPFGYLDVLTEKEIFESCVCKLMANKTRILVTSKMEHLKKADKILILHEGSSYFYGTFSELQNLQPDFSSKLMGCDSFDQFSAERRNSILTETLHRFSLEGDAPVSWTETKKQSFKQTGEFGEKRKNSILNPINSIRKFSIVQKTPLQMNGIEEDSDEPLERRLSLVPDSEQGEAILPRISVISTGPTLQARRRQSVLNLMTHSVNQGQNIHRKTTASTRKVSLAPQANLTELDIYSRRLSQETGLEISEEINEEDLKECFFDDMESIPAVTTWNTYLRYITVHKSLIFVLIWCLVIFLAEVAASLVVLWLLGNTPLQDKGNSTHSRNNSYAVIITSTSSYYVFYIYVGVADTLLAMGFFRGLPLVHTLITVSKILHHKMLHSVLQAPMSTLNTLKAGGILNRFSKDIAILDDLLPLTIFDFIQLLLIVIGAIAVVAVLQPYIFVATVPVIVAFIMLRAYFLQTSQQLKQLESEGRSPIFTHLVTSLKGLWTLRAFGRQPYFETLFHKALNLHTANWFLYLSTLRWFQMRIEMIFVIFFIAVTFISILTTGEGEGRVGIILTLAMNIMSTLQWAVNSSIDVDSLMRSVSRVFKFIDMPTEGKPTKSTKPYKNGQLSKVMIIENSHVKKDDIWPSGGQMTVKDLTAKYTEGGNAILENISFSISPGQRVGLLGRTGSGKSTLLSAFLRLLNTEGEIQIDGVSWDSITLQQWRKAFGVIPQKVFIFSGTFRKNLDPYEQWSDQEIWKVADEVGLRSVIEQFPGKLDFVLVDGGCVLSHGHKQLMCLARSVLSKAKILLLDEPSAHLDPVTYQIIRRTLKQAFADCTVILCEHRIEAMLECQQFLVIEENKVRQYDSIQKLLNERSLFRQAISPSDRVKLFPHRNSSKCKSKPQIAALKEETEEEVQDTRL

| Structure (SMILES) | EC50 |
| --- | --- |
| Nc1cc(S(=O)(=O)c2ccccc2)c2nc1-c1nnc(o1)C(O)(C(F)(F)F)CCCCC[C@@H]1CCCN21 (single isomer, unassigned) [Compound 141] | < 500 nM |
| CN(C)C(=O)C1CCCCCC(O)(C(F)(F)F)C2=NN=C(O2)c2nc(c(C(F)(F)F)cc2N)N1 (single isomer, unassigned) [Compound 148, 17-amino-6-hydroxy-N,N-dimethyl-6,15-bis(trifluoromethyl)-19-oxa-3,4,13,18-tetrazatricyclo[12.3.1.12,5]nonadeca-1(18),2,4,14,16-pentaene-12-carboxamide] | < 500 nM |
| CN(C)C(=O)C1CCCCCC(O)(C(F)(F)F)C2=NN=C(O2)c2nc(c(C(F)(F)F)cc2N)N1 (single isomer, unassigned) [Compound 149, 17-amino-6-hydroxy-N,N-dimethyl-6,15-bis(trifluoromethyl)-19-oxa-3,4,13,18-tetrazatricyclo[12.3.1.12,5]nonadeca-1(18),2,4,14,16-pentaene-12-carboxamide] | > 1000 nM |
| CN(C)C(=O)C1CCCCCC(O)(C(F)(F)F)C2=NN=C(O2)c2nc(c(C(F)(F)F)cc2N)N1 (single isomer, unassigned) [Compound 150, 17-amino-6-hydroxy-N,N-dimethyl-6,15-bis(trifluoromethyl)-19-oxa-3,4,13,18-tetrazatricyclo[12.3.1.12,5]nonadeca-1(18),2,4,14,16-pentaene-12-carboxamide] | > 1000 nM |
| CN(C)C(=O)C1CCCCCC(O)(C(F)(F)F)C2=NN=C(O2)c2nc(c(C(F)(F)F)cc2N)N1 (single isomer, unassigned) [Compound 151, 17-amino-6-hydroxy-N,N-dimethyl-6,15-bis(trifluoromethyl)-19-oxa-3,4,13,18-tetrazatricyclo[12.3.1.12,5]nonadeca-1(18),2,4,14,16-pentaene-12-carboxamide] | > 1000 nM |
| Nc1cc(S(=O)(=O)c2ccc(OC(F)(F)F)cc2)c2nc1-c1nnc(o1)C(O)(C(F)(F)F)CCCCC[C@@H]1CCCN21 (single isomer, unassigned) [Compound 152] | < 500 nM |
| Nc1cc(S(=O)(=O)c2ccc(OC(F)(F)F)cc2)c2nc1-c1nnc(o1)C(O)(C(F)(F)F)CCCCC[C@@H]1CCCN21 (single isomer, unassigned) [Compound 153] | > 1000 nM |
| Nc1cc(C(F)(F)F)c2nc1-c1nnc(o1)[C@@](O)(C(F)(F)F)CCCCCC(C(=O)O)N2 (single isomer, unassigned) [Compound 155] | > 1000 nM |
| Nc1cc(C(F)(F)F)c2nc1-c1nnc(o1)[C@@](O)(C(F)(F)F)CCCCCC(C(=O)O)N2 (single isomer, unassigned) [Compound 156] | < 500 nM |
| Nc1cc(C(F)(F)F)c2nc1-c1nnc(o1)[C@@](O)(C(F)(F)F)CCCCCC(C(=O)N1CCCC1)N2 (single isomer, unassigned) [Compound 157] | < 500 nM |
| Nc1cc(C(F)(F)F)c2nc1-c1nnc(o1)[C@@](O)(C(F)(F)F)CCCCCC(C(=O)N1CCCC1)N2 (single isomer, unassigned) [Compound 158] | > 1000 nM |
| COc1cc2nc(c1N)-c1nnc(o1)C(O)(C(F)(F)F)CCCCC[C@@H]1CCCN21 (single isomer, unassigned) [Compound 159] | > 1000 nM |
| COc1cc2nc(c1N)-c1nnc(o1)C(O)(C(F)(F)F)CCCCC[C@@H]1CCCN21 (single isomer, unassigned) [Compound 160] | > 1000 nM |
| CS(=O)(=O)c1cc(N)c2nc1N1CCC[C@H]1CCCCCC(O)(C(F)(F)F)C1=NN=C2O1 (single isomer, unassigned) [Compound 161] | < 500 nM |
| Nc1cc(C(F)(F)F)c2nc1-c1nnc(o1)C(O)(C(F)(F)F)CCCOC[C@@H]1CCCN21 (single isomer, unassigned) [Compound 167] | < 500 nM |
| COC(=O)c1cc(N)c2nc1N1CCC[C@H]1CCCCCC(O)(C(F)(F)F)C1=NN=C2O1 (single isomer, unassigned) [Compound 169] | > 1000 nM |
| COC(=O)c1cc(N)c2nc1N1CCC[C@H]1CCCCCC(O)(C(F)(F)F)C1=NN=C2O1 (single isomer, unassigned) [Compound 170] | < 500 nM |
| CC1(C)CCCCC(O)(C(F)(F)F)C2=NN=C(O2)c2nc(c(C(F)(F)F)cc2N)NC1 (single isomer, unassigned) [Compound 171, 17-amino-11,11-dimethyl-6,15-bis(trifluoromethyl)-19-oxa-3,4,13,18-tetrazatricyclo[12.3.1.12,5]nonadeca-1(18),2,4,14,16-pentaen-6-ol] | < 500 nM |
| CC1(C)CCCCC(O)(C(F)(F)F)C2=NN=C(O2)c2nc(c(C(F)(F)F)cc2N)NC1 (single isomer, unassigned) [Compound 172, 17-amino-11,11-dimethyl-6,15-bis(trifluoromethyl)-19-oxa-3,4,13,18-tetrazatricyclo[12.3.1.12,5]nonadeca-1(18),2,4,14,16-pentaen-6-ol] | < 500 nM |
| CC1(CO)CCCCC[C@](O)(C(F)(F)F)C2=NN=C(O2)c2nc(c(C(F)(F)F)cc2N)N1 (single isomer, unassigned) [Compound 174] | < 500 nM |

| Structure (SMILES) | EC50 |
| --- | --- |
| CC1(CO)CCCCC[C@](O)(C(F)(F)F)C2=NN=C(O2)c2nc(c(C(F)(F)F)cc2N)N1 (single isomer, unassigned) [Compound 175] | < 500 nM |
| CC(C)C1CCCCC[C@](O)(C(F)(F)F)C2=NN=C(O2)c2nc(c(C(F)(F)F)cc2N)N1 (single isomer, unassigned) [Compound 178] | < 500 nM |
| CC(C)C1CCCCC[C@](O)(C(F)(F)F)C2=NN=C(O2)c2nc(c(C(F)(F)F)cc2N)N1 (single isomer, unassigned) [Compound 179] | < 500 nM |
| Nc1cc(C(F)(F)F)c2nc1-c1nnc(o1)[C@@](O)(C(F)(F)F)CCCCCC(Cc1ccccc1)N2 (single isomer, unassigned) [Compound 180] | < 500 nM |
| Nc1cc(C(F)(F)F)c2nc1-c1nnc(o1)[C@@](O)(C(F)(F)F)CCCCCC(c1ccc(F)cc1)N2 (single isomer, unassigned) [Compound 182] | < 500 nM |
| Nc1cc(C(F)(F)F)c2nc1-c1nnc(o1)[C@@](O)(C(F)(F)F)CCCCCC(c1ncco1)N2 (single isomer, unassigned) [Compound 184] | < 500 nM |
| CC1(C)CCC(O)CC[C@](O)(C(F)(F)F)C2=NN=C(O2)c2nc(c(C(F)(F)F)cc2N)N1 (single isomer, unassigned) [Compound 189] | > 1000 nM |
| CC1(C)CCC(O)CC[C@](O)(C(F)(F)F)C2=NN=C(O2)c2nc(c(C(F)(F)F)cc2N)N1 (single isomer, unassigned) [Compound 190] | < 500 nM |
| Nc1cc(C(F)(F)F)c2nc1-c1nnc(o1)[C@@](O)(C(F)(F)F)CCCCCC(C1CC1)N2 (single isomer, unassigned) [Compound 191] | < 500 nM |
| Nc1cc(C(F)(F)F)c2nc1-c1nnc(o1)[C@@](O)(C(F)(F)F)CCCCCC(C1CC1)N2 (single isomer, unassigned) [Compound 192] | < 500 nM |
| CC1(C)CCCCC(O)C(O)(C(F)(F)F)C2=NN=C(O2)c2nc(c(C(F)(F)F)cc2N)N1 (single isomer, unassigned) [Compound 194, 17-amino-12,12-dimethyl-6,15-bis(trifluoromethyl)-19-oxa-3,4,13,18-tetrazatricyclo[12.3.1.12,5]nonadeca-1(18),2,4,14,16-pentaene-6,7-diol] | < 500 nM |
| CC1(C)CCCCC(O)C(O)(C(F)(F)F)C2=NN=C(O2)c2nc(c(C(F)(F)F)cc2N)N1 (single isomer, unassigned) [Compound 195, 17-amino-12,12-dimethyl-6,15-bis(trifluoromethyl)-19-oxa-3,4,13,18-tetrazatricyclo[12.3.1.12,5]nonadeca-1(18),2,4,14,16-pentaene-6,7-diol] | > 1000 nM |
| CC1(C)CCCOCC(O)(C(F)(F)F)C2=NN=C(O2)c2nc(c(C(F)(F)F)cc2N)N1 (single isomer, unassigned) [Compound 197, 17-amino-12,12-dimethyl-6,15-bis(trifluoromethyl)-8,19-dioxa-3,4,13,18-tetrazatricyclo[12.3.1.12,5]nonadeca-1(18),2,4,14,16-pentaen-6-ol] | < 500 nM |
| CC1(C)COCCCC(O)(C(F)(F)F)C2=NN=C(O2)c2nc(c(C(F)(F)F)cc2N)N1 (single isomer, unassigned) [Compound 199, 17-amino-12,12-dimethyl-6,15-bis(trifluoromethyl)-10,19-dioxa-3,4,13,18-tetrazatricyclo[12.3.1.12,5]nonadeca-1(18),2,4,14,16-pentaen-6-ol] | < 500 nM |
| Nc1cc(C(F)(F)F)c2nc1-c1nnc(o1)[C@@](O)(C(F)(F)F)CCCCCC(c1ncccn1)N2 (single isomer, unassigned) [Compound 201] | < 500 nM |
| CC1(C)Nc2nc(c(N)cc2C(F)(F)F)C2=NN=C(O2)[C@@](O)(C(F)(F)F)CCCCC1O (single isomer, unassigned) [Compound 203] | < 500 nM |
| CC1(C)Nc2nc(c(N)cc2C(F)(F)F)C2=NN=C(O2)[C@@](O)(C(F)(F)F)CCCCC1O (single isomer, unassigned) [Compound 204] | < 500 nM |
| Nc1cc(C(F)(F)F)c2nc1-c1nnc(o1)[C@@](O)(C(F)(F)F)CCCCCC1(CCOC1)N2 (single isomer, unassigned) [Compound 207] | < 500 nM |
| Nc1cc(C(F)(F)F)c2nc1-c1nnc(o1)[C@@](O)(C(F)(F)F)CCCCCC1(CCOC1)N2 (single isomer, unassigned) [Compound 208] | < 500 nM |
